Patent publication US12240822B2, “Naphthalene isoxazoline compound and application thereof” (SHANDONG C[…] SEA PHARMACEUTICAL TECHNOLOGY CO., LTD., priority 2023, dated 2025)
Converted amounts (≈) assume the structure as drawn. “And” between values parts separate entries of the source, which are not always exact repeats. Identical values can stand only once.

Key:
Myzus persicae Sulzer = experiment: Indoor toxicity test on Myzus persicae Sulzer wingless aphids, insect soaking and leaf soaking method; type: in vivo; conditions: for Death rate: 48 h
Method: The aphid species was Myzus persicae Sulzer, which was a sensitive population raised indoors in the bioassay room of the Plant Protection Institute of Shandong Academy of Agricultural Sciences. The temperature range was 24-26° C., the humidity range was 60%-80%, and the illumination was L:D=16 h:8 h. Aphids used for tests were wingless aphids.
Test medicaments were prepared into a mother solution with methanol and then diluted with a Tween-80 aqueous solution having a mass concentration of 0.1% in equal proportions. According to effective components, the B4 was set to 6 concentration gradients of 0.5 mg/L, 1 mg/L, 2 mg/L, 4 mg/L, 8 mg/L, and 16 mg/L; the C4 was set to 6 concentration gradients of 0.5 mg/L, 1 mg/L, 2 mg/L, 4 mg/L, 8 mg/L, and 16 mg/L; and the A4 was set to 6 concentration gradients of 0.05 mg/L, 0.1 mg/L, 0.2 mg/L, 0.4 mg/L, 0.8 mg/L, and 1.6 mg/L. A methanol aqueous solution having a volume concentration of 4% was taken as a blank control.
Insects for tests were processed according to an insect soaking method (NY/T 1154.6-2006) and a leaf soaking method (NY/T 1154.14-2008). Each medicament for tests was diluted to the set 6 concentrations for later use. Absorbent paper was placed at the bottom of a disposable plastic cup, a layer of filter paper was laid on the absorbent paper, and 2 mL of distilled water was added to keep moisture for later use. Leaves with aphids were cut into small leaves, each leaf has about 20 wingless aphids, and the leaves with aphids were gently soaked in the liquid medicine with tweezers and then taken out after 10 s, and placed on the absorbent paper and air-dried. The air-dried leaves were placed in the prepared plastic cups which were then covered, and one leaf was placed in each plastic cup. One repetition was performed for each plastic cup, and 4 repetitions were performed for each concentration. The plastic cups were placed in an illumination incubator, and the number of live aphids and the number of dead aphids were recorded 48 h later.
DPS software was used for processing, and the median lethal concentration LC50 and 95% confidence limit of 3 test medicaments on aphids at 48 h were determined.
The logarithm of the medicament concentration (mg/L) was taken as an independent variable X, the probability value of a corrected death rate was taken as a dependent variable Y, and the LC50 value, 95% confidence limit and R2 of a toxicity regression line were computed by DPS software.

Thrips palmi Karny = experiment: Indoor toxicity test on Thrips palmi Karny adults, liquid tube drug film method with leaf soaking; type: in vivo; conditions: for Death rate: 48 h
Method: Through indoor tests, a liquid tube drug film method improved by a filter paper drug film method was used for evaluating the indoor toxicity effects of three raw drugs on Thrips palmi Karny.
Thrips palmi Karny was raised indoors in the insectary of the Plant Protection Institute of Shandong Academy of Agricultural Sciences.
Culture was performed in an illumination incubator, and raising and observation were performed under the conditions that the temperature was 25.0±2.0° C., the relative humidity was 75±5% and the photoperiod (L/D) was 14 h/10 h.
The insect for tests is an adult of Thrips palmi Karny.
Three test medicaments were prepared into a mother solution with methanol and then diluted with a Tween-80 aqueous solution having a mass concentration of 0.1% in equal proportions, and the concentration was set in equal proportions. • B4 concentration: 0.5, 1, 2, 4, 8, 16 mg/L; • C4 concentration: 25, 12.5, 6.25, 3.125, 1.5625, 0.7813 mg/L; • A4 concentration: 0.1, 0.05, 0.025, 0.0125, 0.00625, 0.003125 mg/L. 3.2.2 Test Repetition
Each processing was repeated 4 times, and 30 insects for tests were used for each repetition.
According to NY/T 1154.8-2007, the liquid tube drug film method improved by the filter paper drug film method was used for processing insects for tests. Medicaments for tests were diluted into 6 concentrations, a 1.5 mL centrifugal tube was filled with each concentration of liquid medicine respectively and allowed to stand for 4 h, then the liquid medicine was poured out, and the centrifugal tube was placed on a test table and air-dried for later use. A fine needle tip was heated with an alcohol lamp, and a small hole with a diameter of about 2-3 mm was formed at the bottom of the air-dried centrifugal tube by heating. One repetition was performed for each tube, and 4 repetitions were performed for each concentration. Leaf soaking: A hole puncher was used for punching fresh cabbage leaves into circular leaves with a diameter of 0.5 cm, and the circular leaves were respectively soaked in each concentration of liquid medicine for 10 s with leaf soaking in clear water as a control. The processed leaves were placed on absorbent paper and air-dried and then clamped with small tweezers into the centrifugal tubes with corresponding liquid medicine concentrations, and one leaf was placed flatly in each tube. Indoor insects for tests: An interface of an insect sucker was sealed with gauze and sleeves an orifice of the processed centrifugal tube, and the hole formed by heating at the bottom of the centrifugal tube was aligned with the insects for tests to enable the insects for tests to be sucked into the centrifugal tube along the airflow. The insects for tests were processed after control, about 30 insects for tests were sucked for each repetition, then a tube cover was covered, and the hole formed by heating was sealed with a sealing film. After related information was marked, the number of live insects and the number of dead insects were recorded 48 h later.
Test results were investigated 48 h after drug post-processing.
The logarithm of the medicament concentration (mg/L) was taken as an independent variable X, the probability value of a corrected death rate was taken as a dependent variable Y, and the LC50 value, LC90 value, 95% confidence limit and R2 of a toxicity regression line were computed by DPS software.

[1] = Thrips palmi Karny adults, 48 h after administration

Which results are given for `CO/N=C/NC(=O)c1ccc(C2=NOC(c3cc(Cl)cc(Cl)c3)(C(F)(F)F)C2)cc1C` (stereo not shown) [C4, fluxametamide]?
Death rate (Myzus persicae Sulzer; 0.5 mg/L, Total): 21.47%; Death rate (Myzus persicae Sulzer; 0.5 mg/L, single repetitions 1-4): 25.00% and 25.71% and 16.67% and 18.52%; Death rate (Myzus persicae Sulzer; 1 mg/L, Total): 46.05%; Death rate (Myzus persicae Sulzer; 1 mg/L, single repetitions 1-4): 47.83% and 36.36% and 40.00% and 60.00%; Death rate (Myzus persicae Sulzer; 2 mg/L, Total): 77.48%; Death rate (Myzus persicae Sulzer; 2 mg/L, single repetitions 1-4): 85.71% and 77.78% and 75.00% and 71.43%; Death rate (Myzus persicae Sulzer; 4 mg/L, Total): 85.54%; Death rate (Myzus persicae Sulzer; 4 mg/L, single repetitions 1-4): 89.29% and 88.00% and 87.10% and 77.78%; Death rate (Myzus persicae Sulzer; 8 mg/L, Total): 96.06%; Death rate (Myzus persicae Sulzer; 8 mg/L, single repetitions 1-4): 91.67% and 92.59% and 100.00%; Death rate (Myzus persicae Sulzer; 16 mg/L, Total): 97.20%; Death rate (Myzus persicae Sulzer; 16 mg/L, single repetitions 1-4): 93.33% and 100.00% and 95.45%; LC50 (Myzus persicae Sulzer; Myzus persicae Sulzer wingless aphids, 48 h after administration): 1.1 µg/mL (≈ 2.32 µM); Death rate (Thrips palmi Karny; 0.7813 mg/L, Total/Average): 14.47%; Death rate (Thrips palmi Karny; 1.5625 mg/L, Total/Average): 25.14%; Death rate (Thrips palmi Karny; 3.125 mg/L, Total/Average): 66.15%; Death rate (Thrips palmi Karny; 3.125 mg/L, single repetitions 1-4): 70.59% and 63.16% and 70.00% and 60.87%; Death rate (Thrips palmi Karny; 6.25 mg/L, Total/Average): 82.01%; Death rate (Thrips palmi Karny; 6.25 mg/L, single repetitions 1-4): 85.71% and 88.00% and 75.00% and 79.31%; Death rate (Thrips palmi Karny; 12.5 mg/L, Total/Average): 87.89%; Death rate (Thrips palmi Karny; 12.5 mg/L, single repetitions 1-4): 88.89% and 85.19% and 87.50% and 90.00%; Death rate (Thrips palmi Karny; 25 mg/L, Total/Average): 96.78%; Death rate (Thrips palmi Karny; 25 mg/L, single repetitions 1-4): 95.83% and 95.65% and 100.00%; LC50 (Thrips palmi Karny; [1]): 2.69 µg/mL (≈ 5.67 µM); LC90 (Thrips palmi Karny; [1]): 16.1203 µg/mL (≈ 34 µM)
